pEC50: −log10 of the molar value. Where two headings read alike, the source gives them in different places. Starred links: 1 amine or outer side, 2 acyl side, 3 side chain; linkers in the order of their positions; H or OH if unused. Non-standard residues stand in square brackets, D forms with d. Groups on a side chain read outwards from the residue. *: point of attachment. C18 diacid = O=C(O)CCCCCCCCCCCCCCCCC(=O)*; αMePhe(2-F) = C[C@](N)(Cc1ccccc1F)C(=O)O; γGlu = O=C(O)[C@H](CCC(=O)[*:2])N[*:1]; αMe4Pal = C[C@](N)(Cc1ccncc1)C(=O)O; αMeY = C[C@](N)(Cc1ccc(O)cc1)C(=O)O; 4Pal = N[C@@H](Cc1ccncc1)C(=O)O; αMeL = CC(C)C[C@](C)(N)C(=O)O; αMeS = C[C@](N)(CO)C(=O)O; Orn = NCCC[C@H](N)C(=O)O; AEEA = NCCOCCOCC(=O)O; Aib = CC(C)(N)C(=O)O
Tests used:
Type in all cases: cell-based
hGcgR = hGcgR (Homo sapiens, UniProt P47871); test: Functional cAMP activation in the presence of 0.1% casein (no HSA); conditions: read-out: Relative cAMP EC50, hGcgR;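 further: intracellular cAMP rise after 30 min at 37 °C, read by HTRF against a cAMP standard curve, scaled from buffer only (0%) to maximal control ligand response (100%)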
Sequence of hGcgR (P47871 26-477): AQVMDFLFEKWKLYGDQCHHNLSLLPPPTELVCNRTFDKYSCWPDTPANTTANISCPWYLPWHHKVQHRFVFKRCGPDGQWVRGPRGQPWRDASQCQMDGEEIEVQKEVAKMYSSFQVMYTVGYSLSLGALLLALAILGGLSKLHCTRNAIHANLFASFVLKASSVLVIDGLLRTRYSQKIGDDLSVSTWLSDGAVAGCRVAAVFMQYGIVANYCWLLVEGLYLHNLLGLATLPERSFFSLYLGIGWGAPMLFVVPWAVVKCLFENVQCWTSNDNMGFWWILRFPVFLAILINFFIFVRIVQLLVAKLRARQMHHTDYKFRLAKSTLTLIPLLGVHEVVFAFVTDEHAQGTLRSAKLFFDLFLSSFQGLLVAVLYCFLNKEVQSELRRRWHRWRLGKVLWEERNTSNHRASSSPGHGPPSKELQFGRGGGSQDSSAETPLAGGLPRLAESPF

hGLP-1R [1] = target: T1, hGLP-1R (Homo sapiens, UniProt P43220); test: as above; conditions: read-out: Relative cAMP EC50, hGLP-1R;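 further: intracellular cAMP rise after 30 min at 37 °C read by HTRF, normalized between buffer only (0%) and maximal control ligand (100%), four-parameter variable-slope fit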
T1 sequence (P43220 24-463): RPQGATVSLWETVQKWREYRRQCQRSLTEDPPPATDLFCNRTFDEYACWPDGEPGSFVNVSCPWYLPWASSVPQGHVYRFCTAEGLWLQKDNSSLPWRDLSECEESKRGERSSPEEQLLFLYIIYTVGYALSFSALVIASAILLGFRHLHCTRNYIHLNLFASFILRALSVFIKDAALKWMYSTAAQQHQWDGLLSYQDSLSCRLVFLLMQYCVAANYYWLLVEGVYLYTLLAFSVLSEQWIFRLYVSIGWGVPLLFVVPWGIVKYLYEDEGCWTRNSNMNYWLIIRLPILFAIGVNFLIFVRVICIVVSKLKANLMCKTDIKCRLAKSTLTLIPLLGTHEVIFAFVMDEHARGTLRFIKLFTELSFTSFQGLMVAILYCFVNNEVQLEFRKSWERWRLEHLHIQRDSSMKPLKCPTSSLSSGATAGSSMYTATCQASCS

hGLP-1R [2] = target: T1, hGLP-1R; test: Functional cAMP activity in the presence of 1% HSA; conditions: read-out: cAMP Rel EC50, hGLP-1R
human GcgR = human GcgR (Homo sapiens, UniProt P47871); test: Functional cAMP activity in the presence of 1% HSA; conditions: read-out: cAMP Rel EC50, hGcgR
Sequence of human GcgR (P47871 26-477): as the sequence (P47871 26-477) above

hGIPR [3] = target: T2, hGIPR (Homo sapiens, UniProt P48546); test: Functional cAMP activation in the presence of 0.1% casein (no HSA); conditions: read-out: Relative cAMP EC50, hGIPR;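 further: intracellular cAMP rise after 30 min at 37 °C read by HTRF against a standard curve, scaled between buffer alone (0%) and top control ligand concentration (100%), four-parameter fit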
T2 sequence (P48546 22-466): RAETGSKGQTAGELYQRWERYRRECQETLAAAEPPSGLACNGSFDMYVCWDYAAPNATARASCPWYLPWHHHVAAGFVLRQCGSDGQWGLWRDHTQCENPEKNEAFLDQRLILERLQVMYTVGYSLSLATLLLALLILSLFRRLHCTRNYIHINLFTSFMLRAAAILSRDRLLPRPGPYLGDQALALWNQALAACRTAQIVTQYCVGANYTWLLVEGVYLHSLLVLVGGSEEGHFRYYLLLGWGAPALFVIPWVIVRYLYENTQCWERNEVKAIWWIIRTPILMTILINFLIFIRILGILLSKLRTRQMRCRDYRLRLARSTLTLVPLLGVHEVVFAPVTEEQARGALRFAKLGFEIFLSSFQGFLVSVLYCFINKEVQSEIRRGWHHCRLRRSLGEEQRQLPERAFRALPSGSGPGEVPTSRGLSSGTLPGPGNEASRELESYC

hGIPR [4] = target: T2, hGIPR; test: Functional cAMP activity in the presence of 1% HSA; conditions: read-out: cAMP Rel EC50, hGIPR
[5] = in the presence of 0.1% casein (no HSA), geometric mean

pEC50 (hGcgR) | pEC50 (hGLP-1R [1]) | pEC50 (hGLP-1R [2]) | pEC50 (human GcgR) | pEC50 (hGIPR [3]) | pEC50 (hGIPR [4]) | Substance | pEC50 (hGcgR; [5]) | pEC50 (hGLP-1R [1]; [5]) | pEC50 (hGIPR [3]; [5])
8.37 | 9.56 | 7.93 | 6.53 | 10.71 | 9.06 | H-Y[Aib]QGT[αMePhe(2-F)]TSD[4Pal][αMeS]I[αMeL]LD[Orn]K([AEEA-γGlu-γGlu-C18 diacid])AQ[Aib][Orn]FIEYLIEAGPSSGEPPPEEG-NH2 [Example 485] |  |  | 
 |  | 7.36 | 6.81 |  | 9.26 | H-Y[Aib]QGT[αMePhe(2-F)]TSD[4Pal][αMeS]I[αMeL]LD[Orn]K([AEEA-γGlu-γGlu-C18 diacid])AQ[αMe4Pal]EFI[dE][αMeY]LIEGGPSSGEPPPSGE-NH2 [Example 1177] | 8.37 | 9.17 | 10.94
 |  | 7.32 | 6.69 |  | 9.18 | H-Y[Aib]QGT[αMePhe(2-F)]TSD[4Pal][αMeS]I[αMeL]LD[Orn]K([AEEA-γGlu-γGlu-C18 diacid])AQ[αMe4Pal]EFI[dE][αMeY]LIEGGPSSGEPPPSGGGE-NH2 [Example 1181] | 8.48 | 9.18 | 10.94
 |  | 7.42 | 6.71 |  | 9.24 | H-Y[Aib]QGT[αMePhe(2-F)]TSD[4Pal][αMeS]I[αMeL]LD[Orn]K([AEEA-γGlu-γGlu-C18 diacid])AQ[αMe4Pal]EFI[dE][αMeY]LIEGGPSSGEPPPSGSE-NH2 [Example 1179] | 8.54 | 9.19 | 10.99
8.08 | 9.00 | 7.01 | 6.00 | 9.88 | 7.93 | H-Y[Aib]QGT[αMePhe(2-F)]TSD[4Pal][αMeS]I[αMeL]LD[Orn]K([Glu-γGlu-C18 diacid])AQ[Aib][Orn]FI[dE][αMeY]LSEGGPSSGEPPPSGTE-NH2 [Example 563] |  |  | 
7.99 | 8.91 | 6.69 | 5.75 | 9.97 | 7.66 | H-Y[Aib]QGT[αMePhe(2-F)]TSD[4Pal][αMeS]I[αMeL]LD[Orn]K([γGlu-Glu-C18 diacid])AQ[Aib][Orn]FI[dE][αMeY]LSEGGPSSGEPPPSGTE-NH2 [Example 565] |  |  | 
8.14 | 8.89 | 6.60 | 5.75 | 9.86 | 7.52 | H-Y[Aib]QGT[αMePhe(2-F)]TSD[4Pal][αMeS]I[αMeL]LD[Orn]K([γGlu-Glu-C18 diacid])AQ[Aib][Orn]FI[dE][αMeY]LSEGGPSSGEPPPSGTEE-NH2 [Example 566] |  |  | 
8.71 | 9.60 | 7.71 | 6.79 | 10.87 | 9.11 | H-Y[Aib]QGT[αMePhe(2-F)]TSD[4Pal][αMeS]I[αMeL]LD[Orn]K([γGlu-γGlu-C18 diacid])AA[Aib]EFI[dE][αMeY]LVEGGPSSGEPPPSGS-NH2 [Example 695] |  |  | 
8.41 | 9.63 | 7.97 | 6.78 | 10.90 | 9.13 | H-Y[Aib]QGT[αMePhe(2-F)]TSD[4Pal][αMeS]I[αMeL]LD[Orn]K([γGlu-γGlu-C18 diacid])AQ[Aib]NFI[dE][αMeY]LIEGGPSSGEPEPEEG-NH2 [Example 474] |  |  | 
8.57 | 9.76 | 7.94 | 6.51 | 11.00 | 8.95 | H-Y[Aib]QGT[αMePhe(2-F)]TSD[4Pal][αMeS]I[αMeL]LD[Orn]K([γGlu-γGlu-C18 diacid])AQ[Aib]NFI[dE][αMeY]LIEGGPSSGEPEPSEG-NH2 [Example 473] |  |  | 
8.00 | 9.37 | 7.69 | 6.34 | 10.45 | 8.68 | H-Y[Aib]QGT[αMePhe(2-F)]TSD[4Pal][αMeS]I[αMeL]LD[Orn]K([γGlu-γGlu-C18 diacid])AQ[Aib]NFI[dE][αMeY]LQEGGPSSGEPPPEGT-NH2 [Example 525] |  |  | 
8.16 | 9.35 | 7.57 | 6.24 | 10.41 | 8.59 | H-Y[Aib]QGT[αMePhe(2-F)]TSD[4Pal][αMeS]I[αMeL]LD[Orn]K([γGlu-γGlu-C18 diacid])AQ[Aib]NFI[dE][αMeY]LQEGGPSSGEPPPEGTGE-NH2 [Example 527] |  |  | 
8.18 | 9.33 | 7.61 | 6.40 | 10.56 | 8.86 | H-Y[Aib]QGT[αMePhe(2-F)]TSD[4Pal][αMeS]I[αMeL]LD[Orn]K([γGlu-γGlu-C18 diacid])AQ[Aib]QFI[dE][αMeY]LQEGGPSSGEPPPEGTGE-NH2 [Example 529] |  |  | 
8.50 | 9.38 | 7.52 | 6.62 | 10.74 | 8.94 | H-Y[Aib]QGT[αMePhe(2-F)]TSD[4Pal][αMeS]I[αMeL]LD[Orn]K([γGlu-γGlu-C18 diacid])AQ[Aib][Orn]FI[dE]YLIEGGPSSGEPPPSGTEE-NH2 [Example 535] |  |  | 
8.25 | 9.16 | 7.42 | 6.39 | 10.53 | 8.71 | H-Y[Aib]QGT[αMePhe(2-F)]TSD[4Pal][αMeS]I[αMeL]LD[Orn]K([γGlu-γGlu-C18 diacid])AQ[Aib][Orn]FI[dE]YLIEGGPSSGEPPPSGTEEE-NH2 [Example 540] |  |  | 
8.42 | 9.32 | 7.57 | 6.63 | 10.68 | 9.06 | H-Y[Aib]QGT[αMePhe(2-F)]TSD[4Pal][αMeS]I[αMeL]LD[Orn]K([γGlu-γGlu-C18 diacid])AQ[Aib][Orn]FI[dE]YLIEGGPSSGEPPPSGTGE-NH2 [Example 523] |  |  | 
8.86 | 9.24 | 7.33 | 6.80 | 10.80 | 8.83 | H-Y[Aib]QGT[αMePhe(2-F)]TSD[4Pal][αMeS]I[αMeL]LD[Orn]K([γGlu-γGlu-C18 diacid])AQ[Aib][Orn]FI[dE]YLLEGGPSSGEPPPSGTE-NH2 [Example 532] |  |  | 
7.77 | 8.31 | 6.36 | 5.89 | 9.06 | 7.20 | H-Y[Aib]QGT[αMePhe(2-F)]TSD[4Pal][αMeS]I[αMeL]LD[Orn]K([γGlu-γGlu-C18 diacid])AQ[Aib][Orn]FI[dE]YLSEGGPSSGEPPPSGTE-NH2 [Example 530] |  |  | 
8.33 | 9.11 | 7.35 | 6.63 | 10.24 | 8.52 | H-Y[Aib]QGT[αMePhe(2-F)]TSD[4Pal][αMeS]I[αMeL]LD[Orn]K([γGlu-γGlu-C18 diacid])AQ[Aib][Orn]FI[dE][αMeY]LAEGGPSSGEPPPSGAEE-NH2 [Example 591] |  |  | 
8.37 | 8.95 | 7.25 | 6.71 | 10.01 | 8.39 | H-Y[Aib]QGT[αMePhe(2-F)]TSD[4Pal][αMeS]I[αMeL]LD[Orn]K([γGlu-γGlu-C18 diacid])AQ[Aib][Orn]FI[dE][αMeY]LAEGGPSSGEPPPSGEEE-NH2 [Example 592] |  |  | 

Substance | pEC50 (hGcgR) | pEC50 (hGLP-1R [1]) | pEC50 (hGLP-1R [2]) | pEC50 (human GcgR) | pEC50 (hGIPR [3]) | pEC50 (hGIPR [4]) | pEC50 (hGcgR; [5]) | pEC50 (hGLP-1R [1]; [5]) | pEC50 (hGIPR [3]; [5])
H-Y[Aib]QGT[αMePhe(2-F)]TSD[4Pal][αMeS]I[αMeL]LD[Orn]K([AEEA-γGlu-γGlu-C18 diacid])AQ[αMe4Pal]EFI[dE][αMeY]LIEGGPSSGAPPPSGE-NH2 [Example 1176] |  |  | 7.36 | 6.64 |  | 9.34 | 8.74 | 9.46 | 11.14
H-Y[Aib]QGT[αMePhe(2-F)]TSD[4Pal][αMeS]I[αMeL]LD[Orn]K([AEEA-γGlu-γGlu-C18 diacid])AQ[αMe4Pal]EFI[dE][αMeY]LIEGGPSSGAPPPSGGGE-NH2 [Example 1180] |  |  | 7.45 | 6.69 |  | 9.47 | 8.50 | 9.35 | 11.22
H-Y[Aib]QGT[αMePhe(2-F)]TSD[4Pal][αMeS]I[αMeL]LD[Orn]K([AEEA-γGlu-γGlu-C18 diacid])AQ[αMe4Pal]EFI[dE][αMeY]LIEGGPSSGAPPPSGSE-NH2 [Example 1178] |  |  | 7.41 | 6.57 |  | 9.26 | 8.51 | 9.36 | 11.04
H-Y[Aib]QGT[αMePhe(2-F)]TSD[4Pal][αMeS]I[αMeL]LD[Orn]K([γGlu-γGlu-C18 diacid])AA[Aib]EFI[dE][αMeY]LIEGGPSSGAPPPSGGGE-NH2 [Example 747] | 8.77 | 9.64 | 7.69 | 6.77 | 11.02 | 9.19 |  |  | 
